Experimental findings from article PMC10916382, “Repurposing screen identifies novel candidates for broad-spectrum coronavirus antivirals and druggable host targets” (Antimicrobial Agents and Chemotherapy, 2024) are described below.

The nature of series [1]: in vitro.
Series [2] relates to SARS-CoV-2. The conditions noted are these: Calu-3 cells.
In series [3] the test system is Huh-7.5/F-Luc cells. The conditions noted are these: Huh-7.5 cells, dose series, maximum tested dose 5 µM.
Series [4] deals with HCoV-229E. The series can be described thus: microbe, parasite or virus in culture. The conditions noted are these: Human coronavirus 229E, Huh7.5. The series is classed as cell-based, Homo sapiens sapiens.
[5] abbreviates: Anti-SARS-CoV-2 screening on Calu-3 cells: viability [% of control], Calu-3 cells.

Structures can show the parent of a compound that is named as a salt. Where two headings read alike, the source gives them in different places.

Regarding `CO[C@@H]1[C@H](O)C[C@@H](O[C@@H]2C[C@H](Oc3cc4cc5c(c(O)c4c(O)c3C)C(=O)[C@@H](O[C@H]3C[C@@H](O[C@H]4C[C@@H](O[C@H]6C[C@](C)(O)[C@@H](OC(C)=O)[C@H](C)O6)[C@H](O)[C@@H](C)O4)[C@H](O)[C@@H](C)O3)[C@H]([C@H](OC)C(=O)[C@@H](O)[C@@H](C)O)C5)O[C@H](C)[C@@H]2OC(C)=O)O[C@@H]1C` [CHROMOMYCIN A3], the viability (as a rule, a read-out of living cells in per cent, often relative to untreated cells) in series [1] (setting [5]) was 61.3%. The “Anti-SARS-CoV-2 screening on Calu-3 cells: intracellular SARS-CoV-2 infection measured via immunofluorescence imaging [% of control]” value (from here on “Anti-SARS-CoV-2 screening … [% of control]”) in series [2] was 60.39 % of control. The “CC50 (µM)” value in series [3] is “greater than maximum tested dose”. In addition, the concentration for half-maximal inhibition (IC50) (commonly the concentration needed to halve the response being measured) in series [4] (read-out: IC50) was 160 nM.

Take `Cc1ccc(Sc2ccccc2N2CCNCC2)c(C)c1` [Vortioxetine hydrobromide]: the viability in series [1] (setting [5]) turned out to be 82.8%. Further, the “Anti-SARS-CoV-2 screening … [% of control]” value in series [2] was 101.64 % of control. Besides, the “CC50 (µM)” value in series [3] is reported as “greater than maximum tested dose”. In series [4], this compound gave an IC50 of 990 nM.

In the case of `COc1cccc2c1C(=O)c1c(O)c3c(c(O)c1C2=O)C[C@@](O)(C(=O)CO)C[C@@H]3O[C@H]1C[C@H](N2CCO[C@H](OC)C2)[C@H](O)[C@H](C)O1` [NEMORUBICIN], the viability in series [1] was 16.5%. Also, the “Anti-SARS-CoV-2 screening … [% of control]” value in series [2] is listed as 46.15 % of control. Besides, the “CC50 (µM)” value in series [3] is recorded as “greater than maximum tested dose”. Further, in series [4] (read-out: IC50), the IC50 stood at 170 nM.

Take `CC(C)(C)NCc1ccc(Nc2ccnc3cc(Cl)ccc23)cc1O` [N-tert-Butylisoquine]: the viability in series [1] (setting [5]) worked out at 106%. Besides, in series [2], the “Anti-SARS-CoV-2 screening … [% of control]” value is 111.10 % of control. Further, the “CC50 (µM)” value in series [3] was “greater than maximum tested dose”. The compound also registered a concentration for half-maximal inhibition (IC50) in series [4] of 540 nM.

As for `CCSc1ccc2c(c1)N(CCCN1CCN(C)CC1)c1ccccc1S2` [Thiethylperazine dimaleate], the viability in series [1] (setting [5]) was 95.3%. The “Anti-SARS-CoV-2 screening … [% of control]” value in series [2] is on record as 110.38 % of control. Moreover, the “CC50 (µM)” value in series [3] is given as “greater than maximum tested dose”. In series [4], 930 nM corresponded to half-maximal inhibition (IC50).

As to `CCN(CC)CCN(Cc1ccc(-c2ccc(C(F)(F)F)cc2)cc1)C(=O)Cn1c(SCc2ccc(F)cc2)nc(=O)c2c1CCC2` [Darapladib], the viability at 48 h, 5 µM in series [1] is 103%. In series [2], the “Anti-SARS-CoV-2 screening … [% of control]” value is given as 107.62 % of control. For the same compound, the “CC50 (µM)” value in series [3] is “greater than maximum tested dose”. The compound also registered an IC50 in series [4] of 300 nM.

For the compound `CN(C)CCOC1=Cc2ccccc2Sc2ccc(Cl)cc21` [zotepine], in series [1], the viability at 48 h, 5 µM came to 98.1%. Also, the “Anti-SARS-CoV-2 screening … [% of control]” value in series [2] is listed as 107.66 % of control. The “CC50 (µM)” value in series [3] is on record as “greater than maximum tested dose”. Further, in series [4], the IC50 was determined as 1040 nM.

For `CNCc1ccc(OC)c([C@]2(N3CCC[C@H]3c3ncco3)C(=O)N(S(=O)(=O)c3ccc(OC)cc3)c3ccc(Cl)cc32)c1` [RFM-011-200-5], in series [1] (setting [5]), the viability is 117%. Moreover, in series [2], the “Anti-SARS-CoV-2 screening … [% of control]” value was 106.10 % of control. In series [3], the “CC50 (µM)” value is “greater than maximum tested dose”. The same compound came in with a 50% inhibitory concentration (IC50) in series [4] of 700 nM.

As to `CNCc1ccc(OC)c([C@@]2(N3CCC[C@H]3c3ncco3)C(=O)N(S(=O)(=O)c3ccc(OC)cc3)c3ccc(Cl)cc32)c1` [RFM-011-199-9], the viability in series [1] (setting [5]) was 95.4%. In series [2], the “Anti-SARS-CoV-2 screening … [% of control]” value is 113.08 % of control. The “CC50 (µM)” value in series [3] is listed as “greater than maximum tested dose”. Half-maximal inhibition in series [4] (IC50) required 800 nM.

On to `COc1ccc2c(c1)CCC(c1ccccc1)=C2c1ccc(OCCN2CCCC2)cc1` [nafoxidine], for which, in series [1], the viability at 48 h, 5 µM was 110%. Besides, the “Anti-SARS-CoV-2 screening … [% of control]” value in series [2] was 104.91 % of control. The “CC50 (µM)” value in series [3] is reported as “greater than maximum tested dose”. This compound also yielded a half-inhibitory concentration (IC50) in series [4] of 370 nM.

With `CN(C)CCOc1ccc(/C(=C(/CCCl)c2ccccc2)c2ccccc2)cc1` [TOREMIFENE CITRATE], in series [1], the viability turned out to be 95.3%. For the same compound, the “Anti-SARS-CoV-2 screening … [% of control]” value in series [2] is given as 114.97 % of control. For the same compound, the “CC50 (µM)” value in series [3] is listed as “greater than maximum tested dose”. In series [4], this compound yielded an IC50 of 1020 nM.

As to `CC(C)(C)NC[C@H](O)COc1ccccc1C1CCCC1` [penbutolol], the viability at 48 h, 5 µM in series [1] worked out at 101%. Further, in series [2], the “Anti-SARS-CoV-2 screening … [% of control]” value is listed as 102.38 % of control. The “CC50 (µM)” value in series [3] was “greater than maximum tested dose”. Besides, the half-maximal inhibitory concentration (IC50) in series [4] stood at 1050 nM.

Consider `CNC1CC(c2ccc(Cl)c(Cl)c2)c2ccccc21` (stereo not drawn) [Indatraline], for which, in series [1] (setting [5]), the viability amounted to 88.1%. In addition, the “Anti-SARS-CoV-2 screening … [% of control]” value in series [2] is 97.64 % of control. For the same compound, in series [3], the “CC50 (µM)” value is listed as “greater than maximum tested dose”. Further, the half-maximal inhibitory concentration (IC50) in series [4] (read-out: IC50) turned out to be 830 nM.

Consider `COc1ccc(C(C)C)cc1CNC1C2CCN(CC2)C1C(c1ccccc1)c1ccccc1` (stereo not drawn) [RFM-011-108-0], for which the viability at 48 h, 5 µM in series [1] amounted to 96.4%. Besides, in series [2], the “Anti-SARS-CoV-2 screening … [% of control]” value was 86.21 % of control. In series [3], the “CC50 (µM)” value is on record as “greater than maximum tested dose”. Further, the 50% inhibitory concentration (IC50) in series [4] was 850 nM.

With `CC(C)(C)c1cnc(CSc2cnc(NC(=O)C3CCNCC3)s2)o1` [SNS-032], the viability in series [1] (setting [5]) was 39.8%. Further, in series [2], the “Anti-SARS-CoV-2 screening … [% of control]” value is 132.10 % of control. The “CC50 (µM)” value in series [3] is recorded as “greater than maximum tested dose”. In series [4], this compound returned an IC50 of 210 nM.

Turning to `CC(C)(Cc1ccc2ccccc2c1)NC[C@@H](O)COc1cccc(Cl)c1C#N` [SB 262470], in series [1] (setting [5]), the viability worked out at 106%. The “Anti-SARS-CoV-2 screening … [% of control]” value in series [2] is on record as 110.66 % of control. In addition, the “CC50 (µM)” value in series [3] was “greater than maximum tested dose”. Inhibition in series [4] was half-maximal at 960 nM (IC50).

With `CC1=C(c2ccc(O)cc2)[C@H](c2ccc(OCCN3CCCCC3)cc2)Oc2cc(O)ccc21` [ACOLBIFENE], the viability at 48 h, 5 µM in series [1] was 88%. Also, in series [2], the “Anti-SARS-CoV-2 screening … [% of control]” value is recorded as 111.23 % of control. For the same compound, the “CC50 (µM)” value in series [3] is “greater than maximum tested dose”. Also, the half-maximal inhibitory concentration (IC50) in series [4] turned out to be 990 nM.

As for `COCC(=O)O[C@]1(CCN(C)CCCc2nc3ccccc3[nH]2)CCc2cc(F)ccc2[C@@H]1C(C)C` [mibefradil dihydrochloride], the viability in series [1] (setting [5]) was 98.3%. In series [2], the “Anti-SARS-CoV-2 screening … [% of control]” value was 108.00 % of control. In series [3], the “CC50 (µM)” value is listed as “greater than maximum tested dose”. Also, in series [4], the IC50 is 1030 nM.

As for `CN1CCC(c2cn(C)c3ccc(OS(=O)(=O)c4c(F)cccc4F)cc23)CC1` [LY-483518], in series [1], the viability at 48 h, 5 µM was 111%. Also, the “Anti-SARS-CoV-2 screening … [% of control]” value in series [2] is reported as 109.16 % of control. Moreover, the “CC50 (µM)” value in series [3] is on record as “greater than maximum tested dose”. Also, the midpoint of inhibition in series [4], the IC50, lay at 1030 nM.

Take `O=C1NCCN1CCN1CCC(c2cn(-c3ccc(F)cc3)c3ccc(Cl)cc23)CC1` [sertindole]: the viability at 48 h, 5 µM in series [1] was 106%. Further, in series [2], the “Anti-SARS-CoV-2 screening … [% of control]” value is 107.90 % of control. In series [3], the “CC50 (µM)” value is on record as “greater than maximum tested dose”. In series [4], 960 nM corresponded to half-maximal inhibition (IC50).

Turning to `CCOc1cc2c(c(F)c1OCC)C(=N)N(CC(=O)c1cc(N3CCOCC3)c(OC)c(C(C)(C)C)c1)C2` [atopaxar], in series [1] (setting [5]), the viability was determined as 81.4%. The “Anti-SARS-CoV-2 screening … [% of control]” value in series [2] is on record as 107.54 % of control. The “CC50 (µM)” value in series [3] is reported as “greater than maximum tested dose”. In series [4], this compound returned an IC50 of 490 nM.

For `C1CCC(C(CC2CCCCN2)C2CCCCC2)CC1` (stereo not drawn) [PERHEXILINE], the viability at 48 h, 5 µM in series [1] turned out to be 97%. For the same compound, the “Anti-SARS-CoV-2 screening … [% of control]” value in series [2] is given as 116.50 % of control. Also, the “CC50 (µM)” value in series [3] was “greater than maximum tested dose”. The compound also registered a 50% inhibitory concentration (IC50) in series [4] of 670 nM.

Consider `CN(C)c1ccc(C(=C2C=CC(=[N+](C)C)C=C2)c2ccc(N(C)C)cc2)cc1` [Gentian violet, reference compound], for which, in series [1], the viability at 48 h, 5 µM worked out at 101%. The total cell numbers in series [2] (5 µM, DAPI, relative to DMSO) is reported as not below 75%. In addition, in series [2] (5 µM, N protein immunofluorescence, relative to DMSO), the “reduction of infected cell numbers” value is “more than 50%”. For the same compound, in series [2], the “Anti-SARS-CoV-2 screening … [% of control]” value is reported as 6.34 % of control. The “CC50 (µM)” value in series [3] is recorded as “greater than maximum tested dose”. This compound came in with an IC50 in series [4] of 120 nM.

As for `Cc1nc2c(N3CCNCC3)cccc2n1S(=O)(=O)c1ccccc1` [PF-5212377], the viability in series [1] (setting [5]) came out at 104%. In series [2], the “Anti-SARS-CoV-2 screening … [% of control]” value is given as 99.72 % of control. The “CC50 (µM)” value in series [3] is recorded as “greater than maximum tested dose”. It took 1150 nM to reach half-maximal inhibition in series [4] (IC50).

For the compound `CNCc1ccc(C)c(NC(=O)c2ccc(Nc3nc(-c4ccccc4)c4ccccc4n3)cc2)c1` [XL-139], the viability in series [1] (setting [5]) is 107%. Further, the “Anti-SARS-CoV-2 screening … [% of control]” value in series [2] is 109.44 % of control. For the same compound, the “CC50 (µM)” value in series [3] is “greater than maximum tested dose”. Besides, half-maximal inhibition in series [4] (IC50) required 620 nM.
